According to ChEMBL document CHEMBL3739319, “Identification of a novel class of autotaxin inhibitors through cross-screening” (Medchemcomm, 2015):
In brackets after ≈: the same amount, converted by molar mass. Activity calls are given as the source filed them. No cut-off for these calls is given here.

Target: Lysophosphatidic acid receptor 1 (Homo sapiens) (UniProt Q92633)
Experiment: Antagonist activity at LPA1 receptor (unknown origin) expressed in CHO-K1 cells assessed as LPA-induced receptor activity measured as remaining receptor activity at 10 uM compound incubated for 1 hr followed by addition of LPA for 3 hrs by luminometry
Type: cell-based
Settings: not given

Chain of Lysophosphatidic acid receptor 1 (Homo sapiens) (Q92633 whole entry): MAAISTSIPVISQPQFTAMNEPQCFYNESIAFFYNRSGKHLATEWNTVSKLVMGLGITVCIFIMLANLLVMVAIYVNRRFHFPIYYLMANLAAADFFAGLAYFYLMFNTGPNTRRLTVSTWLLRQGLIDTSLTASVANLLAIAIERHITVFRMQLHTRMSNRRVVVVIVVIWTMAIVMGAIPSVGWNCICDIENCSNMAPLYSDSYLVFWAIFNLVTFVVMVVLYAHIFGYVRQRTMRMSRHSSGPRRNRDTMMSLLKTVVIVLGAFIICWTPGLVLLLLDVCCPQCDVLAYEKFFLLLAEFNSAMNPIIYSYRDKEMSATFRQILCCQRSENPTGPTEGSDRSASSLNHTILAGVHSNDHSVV

Compared with Cc1noc(-c2ccc(CSCCC(=O)O)cc2)c1NC(=O)OC(C)c1ccccc1Cl (stereo unspecified), Cc1noc(-c2ccc(-c3ccc(CC(=O)O)cc3)cc2)c1NC(=O)O[C@H](C)c1ccccc1 is lower in Activity: 16% for the first, 11% for the second.

Target: T1, Autotaxin (Homo sapiens, UniProt Q13822)
Experiment: Inhibition of ATX (unknown origin) using bis-(p-nitrophenyl)phosphate as substrate
Settings: not given

Compared with O=C(O)Cc1ccc(-c2ccc(CN3CC(=O)N(C4CCCCC4)C3=O)cc2)cc1, O=C(O)Cc1ccc(-c2ccc(CN3CC(=O)N(C4CCCCC4)C3=O)nc2)cc1 is 2.2-fold higher in Ki: 1.8 µM for the first, 3.9 µM for the second.

Going from O=C1CN(Cc2ccc(-c3ccc(C4(C(=O)O)CC4)cc3)cc2)C(=O)N1c1ccccc1 to O=C(O)Cc1ccc(-c2ccc(CN3CC(=O)N(c4ccccc4)C3=O)cc2)cc1, the Ki falls from > 30 µM to 3.6 µM. The second binds more tightly here.

O=C1CN(Cc2ccc(-c3ccccc3)cc2)C(=O)N1c1ccccc1 and O=C1CN(Cc2ccc(Br)cc2)C(=O)N1c1ccccc1 cannot be ordered by Ki: 1.3 µM for the first, < 5 µM for the second.

First: O=C(O)Cc1ccc(-c2ccc(N(C(=O)OCc3ccccc3)C3CCCCC3)cc2)cc1
Second: O=C(O)Cc1ccc(-c2ccc(N(C(=O)OCc3ccccc3)C3CCOCC3)cc2)cc1
The Ki of the first is lower: 2 µM for the first, > 30 µM for the second. The first binds more tightly here.

O=C(O)Cc1cccc(-c2cccc(NC(=O)OCc3ccccc3)c2)c1 and O=C(O)Cc1ccc(-c2cccc(NC(=O)OCc3ccccc3)c2)cc1 are within 1.5-fold of each other in Ki: 3.5 µM for the first, 4.5 µM for the second.

Brc1ccc(NC2CCOCC2)cc1 and O=C1CN(Cc2ccc(Br)cc2)C(=O)N1C1CCCCC1 cannot be ordered by Ki: < 5 µM for the first, < 5 µM for the second.

Going from CC(C)N1C(=O)CN(Cc2ccc(-c3ccc(CC(=O)O)cc3)cn2)C1=O to CC(C)N1C(=O)CN(Cc2ccc(-c3ccc(CC(=O)O)cc3)cc2)C1=O, the Ki falls from 4 µM to 1.2 µM (3.3-fold). The second binds more tightly here.

COC(=O)CNCc1ccc(Br)cc1 and COC(=O)CNCc1ccc(Br)cn1 cannot be ordered by Ki: < 5 µM for the first, < 5 µM for the second.

Going from O=C(Nc1cccc(-c2ccccc2)c1)OCc1ccccc1 to O=C(O)Cc1ccccc1-c1cccc(NC(=O)OCc2ccccc2)c1, the Ki falls from > 30 µM to 4 µM. The second binds more tightly here.

First: O=C(Cc1ccc(-c2ccc3[nH]ccc3c2)cc1)OCc1ccccc1
Second: O=C(Cc1ccc(-c2ccc3cc[nH]c3c2)cc1)OCc1ccccc1
The Ki of the first is lower: 1.1 µM for the first, > 30 µM for the second.

In the case of CC(C)N1C(=O)CN(Cc2ccc(Br)cn2)C1=O, the Ki is reported as < 5 µM.

Target: T1, Autotaxin
Experiment: Inhibition of ATX (unknown origin) using bis-(p-nitrophenyl)phosphate as substrate at 30 uM
Settings: not given

Cc1noc(-c2ccc(CSCCC(=O)O)cc2)c1NC(=O)OC(C)c1ccccc1Cl (stereo unspecified) and Cc1noc(-c2ccc(-c3ccc(CC(=O)O)cc3)cc2)c1NC(=O)O[C@H](C)c1ccccc1 cannot be ordered by inhibition: < 20% for the first, < 20% for the second.

Tested on: not listed separately
Experiment: Lipophilicity, log D of compound at pH 7.4 by RP-HPLC analysis
Type: physicochemical
Settings: buffer

Going from O=C(O)Cc1ccc(-c2ccc(CN3CC(=O)N(C4CCCCC4)C3=O)cc2)cc1 to O=C(O)Cc1ccc(-c2ccc(CN3CC(=O)N(C4CCCCC4)C3=O)nc2)cc1, the logD falls from 1.12 to -0.35.

Compared with O=C1CN(Cc2ccc(-c3ccc(C4(C(=O)O)CC4)cc3)cc2)C(=O)N1c1ccccc1, O=C(O)Cc1ccc(-c2ccc(CN3CC(=O)N(c4ccccc4)C3=O)cc2)cc1 is higher in logD: 1.5 for the first, 2.18 for the second.

Going from O=C1CN(Cc2ccc(-c3ccccc3)cc2)C(=O)N1c1ccccc1 to CC(C)N1C(=O)CN(Cc2ccc(-c3ccc(CC(=O)O)cc3)cc2)C1=O, the logD falls from 6.24 to 1.1.

Going from O=C(O)Cc1ccc(-c2ccc(N(C(=O)OCc3ccccc3)C3CCCCC3)cc2)cc1 to O=C(O)Cc1ccc(-c2ccc(N(C(=O)OCc3ccccc3)C3CCOCC3)cc2)cc1, the logD falls from 4.92 to 3.13.

O=C(O)Cc1cccc(-c2cccc(NC(=O)OCc3ccccc3)c2)c1 and O=C(O)Cc1ccc(-c2cccc(NC(=O)OCc3ccccc3)c2)cc1 are within 0.2 log units of each other in logD: 3.1 for the first, 3.19 for the second.

First: CC(C)N1C(=O)CN(Cc2ccc(-c3ccc(CC(=O)O)cc3)cn2)C1=O
Second: O=C(Cc1ccc(-c2ccc3cc[nH]c3c2)cc1)OCc1ccccc1
The logD of the first is lower: -1.38 for the first, 7.43 for the second.

Compared with O=C(Nc1cccc(-c2ccccc2)c1)OCc1ccccc1, O=C(O)Cc1ccccc1-c1cccc(NC(=O)OCc2ccccc2)c1 is lower in logD: 7.52 for the first, 3.06 for the second.

O=C(Cc1ccc(-c2ccc3[nH]ccc3c2)cc1)OCc1ccccc1 showed a logD of 7.25.

Tested on: not listed separately
Experiment: Kinetic solubility of compound in phosphate buffer at pH 7.4 for 1 hr
Type: physicochemical
Settings: read-out: Kinetic_solubility

Going from O=C(O)Cc1ccc(-c2ccc(CN3CC(=O)N(C4CCCCC4)C3=O)cc2)cc1 to O=C(O)Cc1ccc(-c2ccc(CN3CC(=O)N(C4CCCCC4)C3=O)nc2)cc1, the solubility kinetic at 1 h falls from 186 µg/mL (≈ 456 µM) to 93 µg/mL (≈ 228 µM) (2-fold).

O=C1CN(Cc2ccc(-c3ccc(C4(C(=O)O)CC4)cc3)cc2)C(=O)N1c1ccccc1 and O=C(O)Cc1ccc(-c2ccc(CN3CC(=O)N(c4ccccc4)C3=O)cc2)cc1 are within 1.5-fold of each other in solubility kinetic at 1 h: 195 µg/mL (≈ 457 µM) for the first, 174 µg/mL (≈ 436 µM) for the second.

Compared with O=C1CN(Cc2ccc(-c3ccccc3)cc2)C(=O)N1c1ccccc1, CC(C)N1C(=O)CN(Cc2ccc(-c3ccc(CC(=O)O)cc3)cc2)C1=O is 25-fold higher in solubility kinetic at 1 h: 7.5 µg/mL (≈ 21.9 µM) for the first, 190 µg/mL (≈ 519 µM) for the second.

O=C(O)Cc1ccc(-c2ccc(N(C(=O)OCc3ccccc3)C3CCCCC3)cc2)cc1 and O=C(O)Cc1ccc(-c2ccc(N(C(=O)OCc3ccccc3)C3CCOCC3)cc2)cc1 are within 1.5-fold of each other in solubility kinetic at 1 h: 189 µg/mL (≈ 426 µM) for the first, 212 µg/mL (≈ 476 µM) for the second.

O=C(O)Cc1cccc(-c2cccc(NC(=O)OCc3ccccc3)c2)c1 and O=C(O)Cc1ccc(-c2cccc(NC(=O)OCc3ccccc3)c2)cc1 are within 1.5-fold of each other in solubility kinetic at 1 h: 221 µg/mL (≈ 612 µM) for the first, 198 µg/mL (≈ 548 µM) for the second.

CC(C)N1C(=O)CN(Cc2ccc(-c3ccc(CC(=O)O)cc3)cn2)C1=O and O=C(Cc1ccc(-c2ccc3cc[nH]c3c2)cc1)OCc1ccccc1 are within 1.5-fold of each other in solubility kinetic at 1 h: 108 µg/mL (≈ 294 µM) for the first, 110 µg/mL (≈ 322 µM) for the second.

Going from O=C(Nc1cccc(-c2ccccc2)c1)OCc1ccccc1 to O=C(O)Cc1ccccc1-c1cccc(NC(=O)OCc2ccccc2)c1, the solubility kinetic at 1 h rises from 5 µg/mL (≈ 16.5 µM) to 287 µg/mL (≈ 794 µM) (57-fold).

Compound O=C(Cc1ccc(-c2ccc3[nH]ccc3c2)cc1)OCc1ccccc1 has a solubility kinetic at 1 h of 70 µg/mL (≈ 205 µM).

Tested on: not listed separately
Experiment: Permeability of compound across artificial membrane after 3 hrs by LC-MS analysis
Type: ADME
Settings: PAMPA; read-out: permeability

O=C(O)Cc1ccc(-c2ccc(CN3CC(=O)N(C4CCCCC4)C3=O)cc2)cc1 and O=C(O)Cc1ccc(-c2ccc(CN3CC(=O)N(C4CCCCC4)C3=O)nc2)cc1 cannot be ordered by Papp at 3 h: 2.2 ×10⁻⁶ cm/s for the first, < 3 ×10⁻⁶ cm/s for the second.

Compared with O=C1CN(Cc2ccc(-c3ccc(C4(C(=O)O)CC4)cc3)cc2)C(=O)N1c1ccccc1, O=C(O)Cc1ccc(-c2ccc(CN3CC(=O)N(c4ccccc4)C3=O)cc2)cc1 is 5.3-fold lower in Papp at 3 h: 1.6 ×10⁻⁶ cm/s for the first, 0.3 ×10⁻⁶ cm/s for the second.

Going from O=C1CN(Cc2ccc(-c3ccccc3)cc2)C(=O)N1c1ccccc1 to CC(C)N1C(=O)CN(Cc2ccc(-c3ccc(CC(=O)O)cc3)cc2)C1=O, the Papp at 3 h falls from 54 ×10⁻⁶ cm/s to 0.3 ×10⁻⁶ cm/s (180-fold).

Going from O=C(O)Cc1ccc(-c2ccc(N(C(=O)OCc3ccccc3)C3CCCCC3)cc2)cc1 to O=C(O)Cc1ccc(-c2ccc(N(C(=O)OCc3ccccc3)C3CCOCC3)cc2)cc1, the Papp at 3 h falls from 15 ×10⁻⁶ cm/s to 2.3 ×10⁻⁶ cm/s (6.5-fold).

O=C(O)Cc1cccc(-c2cccc(NC(=O)OCc3ccccc3)c2)c1 and O=C(O)Cc1ccc(-c2cccc(NC(=O)OCc3ccccc3)c2)cc1 are within 1.5-fold of each other in Papp at 3 h: 6.4 ×10⁻⁶ cm/s for the first, 7.3 ×10⁻⁶ cm/s for the second.

First: CC(C)N1C(=O)CN(Cc2ccc(-c3ccc(CC(=O)O)cc3)cn2)C1=O
Second: O=C(Cc1ccc(-c2ccc3cc[nH]c3c2)cc1)OCc1ccccc1
The Papp at 3 h of the first is lower: < 1 ×10⁻⁶ cm/s for the first, 51 ×10⁻⁶ cm/s for the second.

Compared with O=C(Nc1cccc(-c2ccccc2)c1)OCc1ccccc1, O=C(O)Cc1ccccc1-c1cccc(NC(=O)OCc2ccccc2)c1 is 3.2-fold lower in Papp at 3 h: 45 ×10⁻⁶ cm/s for the first, 14 ×10⁻⁶ cm/s for the second.

Work on O=C(Cc1ccc(-c2ccc3[nH]ccc3c2)cc1)OCc1ccccc1 yielded a Papp at 3 h of 44.5 ×10⁻⁶ cm/s.

Tested on: PC-3
Experiment: Inhibition of LPA-induced cell proliferation of human PC3 cells at 10 uM after 18 hrs by [3H]-thymidine incorporation assay
Type: functional, cell-based
Settings: not given

For O=C1CN(Cc2ccc(-c3ccccc3)cc2)C(=O)N1c1ccccc1, the inhibition was “Active”.
For O=C(O)Cc1ccc(-c2ccc(N(C(=O)OCc3ccccc3)C3CCCCC3)cc2)cc1, the inhibition was “Active”.
For O=C(O)Cc1ccc(-c2cccc(NC(=O)OCc3ccccc3)c2)cc1, the inhibition was “Active”.

Tested on: A2780
Experiment: Cytotoxicity against human A2780 cells at 30 uM after 42 hrs by alamar blue assay
Type: cell-based
Settings: a2780, 42 h

With O=C1CN(Cc2ccc(-c3ccccc3)cc2)C(=O)N1c1ccccc1 the Activity was “Non-toxic”.
For O=C(O)Cc1ccc(-c2ccc(N(C(=O)OCc3ccccc3)C3CCCCC3)cc2)cc1, the Activity was “Non-toxic”.
With O=C(O)Cc1ccc(-c2cccc(NC(=O)OCc3ccccc3)c2)cc1 the Activity was “Non-toxic”.
